What was measured:
[1] = pH sensitivity of liposomes: turbidity (absorbance at 400 nm) as a function of pH titration; format: physicochemical; conditions: samples (50 μl) in 3 ml PBS titrated with HCl; pH lowered from 4.5 to 3.5; DSPC samples extruded to 100 nm
Method: FIG. 2 illustrates the absorbance change as a function of pH titration. Samples (50 μl) in 3 ml of PBS were titrated with HCl. The pH was measured and absorbence read at 400 nm.
The DSPC MLV samples were then processed by extrusion to form liposomes with diameters of 100 nm. The pH sensitivity of the liposomes were compared by monitoring turbidity at 400 nm as a function of pH. […] This feature of ALP may be useful in certain applications where pH plays a role.

[2] = Liposome preparation by lipid film rehydration, observed by light microscopy; format: physicochemical; conditions: PBS pH 7.2, 55° C.
Method: Two ALPs of General Formula 1 were prepared, a) laurylaldehyde (X=O and R^1, R^2=C11H23) or b) (S,S)-(3-Octadecanoyl-6-oxo-2-undecyl-hexahydro-pyrimidine-4-carboxlic acid and tested for the ability to form liposomes and for its suitability as a component of liposomes containing phospholipids and cholesterol. Liposomes were prepared by mixing varying amounts of the phospholipid, distearoyl phosphatidylcholine (DSPC), cholesterol or ALP in chloroform. The chloroform was removed to form a thin lipid film. After vacuum desiccation overnight, each lipid formulation was rehydrated with phosphate buffered saline (PBS), pH 7.2, warmed to 55° C. (phase transition temperature of DSPC) and vortexed vigorously to form multilamellar liposomes (MLV). Aliquots of each MLV formulation were set aside and observed by light microscopy. DSPC MLV, DSPC MLV containing 10 mole % ALP, ALP lipid structures (3 mg/ml) and ALP lipid structures (30 mg/ml), respectively, were imaged.

## CCCCCCCCCCCCCCCCCC(=O)N1[C@@H](CCCCCCCCCCC)NC(=O)C[C@H]1C(=O)O [ALP]
[1]
  absorbance change at 400 nm as a function of pH (pH sensitivity): increased
[2]; ALP alone at high concentrations (30 mg/ml)
  structures formed on rehydration (light microscopy): crystal structures were evident
[2]; ALP alone at low concentrations (3 mg/ml)
  structures formed on rehydration (light microscopy): typically form liposomes

Source: US7439250B2, “Compositions and methods related to fatty amino acid derivatives” (Board of Regents, The University of Texas System, priority 2002, dated 2008)
